Measured values taken from patent US12077503B2, “Substituted cyclic amides and their use as herbicides” (FMC CORPORATION, priority 2015, dated 2024).

Columns and labels:
Assay type in all cases: in vivo
[1] = system: rice (Oryra sativa); test: Test B flooded paddy test; conditions: Flood, 250 g ai/ha; 0 to 100 scale where 0 is no effect and 100 is complete control; 13 to 15 d
Procedure, shortened: (§1)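 Greenhouse paddy pots with 2-leaf stage plants received compound by direct addition to floodwater 3 cm deep, kept at that level. Scored visually at 13–15 d versus controls (0 no effect; 100 complete control).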

[2] = system: sedge, umbrella (small-flower umbrella sedge, Cyperus difformis); test: Test B flooded paddy test; conditions: Flood, 250 g ai/ha; 0 to 100 scale where 0 is no effect and 100 is complete control; 13 to 15 d
Procedure, shortened: as §1

[3] = system: barnyardgrass (Echinochloa crus-galli); test: Test B flooded paddy test; conditions: Flood, 250 g ai/ha; 0 to 100 scale where 0 is no effect and 100 is complete control; 13 to 15 d
Procedure, shortened: as §1

[4] = system: ducksalad (Heteranthera limosa); test: Test B flooded paddy test; conditions: Flood, 250 g ai/ha; 0 to 100 scale where 0 is no effect and 100 is complete control; 13 to 15 d
Procedure, shortened: as §1

[5] = system: giant foxtail (Setaria faberii); test: Test A preemergence; conditions: Preemergence; for Plant response rating, Foxtail, Giant: 125 g ai/ha, visual injury after approximately 10 d, 0 to 100 scale where 0 is no effect and 100 is complete control; for Foxtail, Giant plant response rating (0 to 100 scale, 0 is no effect, 100 is complete control): 500 g ai/ha, visual injury approx. 10 d
Procedure, shortened: (§2)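 Compounds were formulated in a non-phytotoxic solvent mixture with surfactant and applied as a preemergence directed soil spray after seeding, or sprayed postemergence over plants 2 to 10 cm tall at the one- to two-leaf stage. Evaluation after about 10 d compared treated with untreated controls, using a scale from 0 (no effect) to 100 (complete control).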

[6] = system: Kochia (Kochia scoparia); test: Test A preemergence; conditions: Preemergence; for Plant response rating, Kochia: 125 g ai/ha, visual injury after approximately 10 d, 0 to 100 scale where 0 is no effect and 100 is complete control; for Kochia plant response rating (0 to 100 scale, 0 is no effect, 100 is complete control): 500 g ai/ha, visual injury approx. 10 d
Procedure, shortened: as §2

[7] = system: pigweed (Amaranthus retroflexus); test: Test A preemergence; conditions: Preemergence; for Plant response rating, Pigweed: 125 g ai/ha, visual injury after approximately 10 d, 0 to 100 scale where 0 is no effect and 100 is complete control; for Pigweed plant response rating (0 to 100 scale, 0 is no effect, 100 is complete control): 500 g ai/ha, visual injury approx. 10 d
[8] = system: ragweed (common ragweed, Ambrosia elatior); test: Test A preemergence; conditions: Preemergence; for Plant response rating, Ragweed: 125 g ai/ha, visual injury after approximately 10 d, 0 to 100 scale where 0 is no effect and 100 is complete control; for Ragweed plant response rating (0 to 100 scale, 0 is no effect, 100 is complete control): 500 g ai/ha, visual injury approx. 10 d
Procedure, shortened: as §2

[9] = system: ryegrass, Italian (Italian ryegrass, Lolium multiflorum); test: Test A preemergence; conditions: Preemergence; for Plant response rating, Ryegrass, Italian: 125 g ai/ha, visual injury after approximately 10 d, 0 to 100 scale where 0 is no effect and 100 is complete control; for Ryegrass, Italian plant response rating (0 to 100 scale, 0 is no effect, 100 is complete control): 500 g ai/ha, visual injury approx. 10 d
Procedure, shortened: as §2

[10] = system: barnyardgrass (Echinochloa crus-galli); test: Test A preemergence; conditions: Preemergence; for Plant response rating, Barnyardgrass: 125 g ai/ha, visual injury after approximately 10 d, 0 to 100 scale where 0 is no effect and 100 is complete control; for Barnyardgrass plant response rating (0 to 100 scale, 0 is no effect, 100 is complete control): 500 g ai/ha, visual injury approx. 10 d
Procedure, shortened: as §2

[11] = system: giant foxtail (Setaria faberii); test: Test A postemergence
Procedure, shortened: as §2

[12] = system: Galium (catchweed bedstraw, Galium aparine); test: Test A postemergence
Procedure, shortened: as §2

[13] = system: Kochia (Kochia scoparia); test: Test A postemergence
Procedure, shortened: as §2

[14] = system: pigweed (Amaranthus retroflexus); test: Test A postemergence
Procedure, shortened: as §2

[15] = system: ragweed (common ragweed, Ambrosia elatior); test: Test A postemergence
Procedure, shortened: as §2

[16] = system: ryegrass, Italian (Italian ryegrass, Lolium multiflorum); test: Test A postemergence
Procedure, shortened: as §2

[17] = system: wheat (Triticum aestivum); test: Test A postemergence
Procedure, shortened: as §2

[18] = system: blackgrass (Alopecurus myosuroides); test: Test A postemergence
Procedure, shortened: as §2

[19] = system: barnyardgrass (Echinochloa crus-galli); test: Test A postemergence
Procedure, shortened: as §2

[20] = system: corn (Zea mays); test: Test A postemergence
Procedure, shortened: as §2

[21] = 125 g ai/ha, postemergence, visual injury rating on 0 to 100 scale (0 no effect, 100 complete control), approx. 10 d
[22] = Postemergence, 500 g ai/ha, 0 to 100 scale where 0 is no effect and 100 is complete control
[23] = 125 g ai/ha, postemergence, visual rating after approx. 10 d, 0 to 100 scale (0 no effect, 100 complete control)

Compound | Plant response rating, Rice [1] | Plant response rating, Sedge, Umbrella [2] | Plant response rating, Barnyardgrass [3] | Plant response rating, Ducksalad [4] | Plant response rating, Foxtail, Giant [5] | Foxtail, Giant plant response rating (0 to 100 scale, 0 is no effect, 100 is complete control) [5] | Plant response rating, Kochia [6] | Kochia plant response rating (0 to 100 scale, 0 is no effect, 100 is complete control) [6] | Plant response rating, Pigweed [7] | Pigweed plant response rating (0 to 100 scale, 0 is no effect, 100 is complete control) [7] | Plant response rating, Ragweed [8] | Ragweed plant response rating (0 to 100 scale, 0 is no effect, 100 is complete control) [8] | Plant response rating, Ryegrass, Italian [9] | Ryegrass, Italian plant response rating (0 to 100 scale, 0 is no effect, 100 is complete control) [9] | Plant response rating, Barnyardgrass [10] | Barnyardgrass plant response rating (0 to 100 scale, 0 is no effect, 100 is complete control) [10] | Plant response rating, Foxtail, Giant [11, 22] | Plant response rating, Galium [12, 22] | Plant response rating, Kochia [13, 22] | Plant response rating, Pigweed [14, 22] | further results
O=C(Nc1cccc(F)c1F)C1C(=O)N(CC=CBr)CC1c1cccc(C(F)(F)F)c1 (stereo not drawn) [Compound 486] | 0 | 0 | 0 | 0 | 60 | 90 | 0 | 0 | 0 | 20 | 0 | 0 | 0 | 20 | 30 | 70 | 50 | 20 | 0 | 40 | Foxtail, Giant plant response rating [11, 21]: 0; Galium plant response rating [12, 21]: 0; Kochia plant response rating [13, 21]: 0; Pigweed plant response rating [14, 21]: 0; Ragweed plant response rating [15, 21]: 0; Plant response rating, Ragweed [15, 22]: 0; Ryegrass, Italian plant response rating [16, 21]: 0; Plant response rating, Ryegrass, Italian [16, 22]: 0; Wheat plant response rating [17, 21]: 0; Plant response rating, Wheat [17, 22]: 0; Blackgrass plant response rating [18, 21]: 0; Plant response rating, Blackgrass [18, 22]: 0; Barnyardgrass plant response rating [19, 21]: 0; Plant response rating, Barnyardgrass [19, 22]: 40; Corn plant response rating [20, 21]: 0; Plant response rating, Corn [20, 22]: 0
O=C1NCC(c2cc(C(F)(F)F)cc(C(F)(F)F)c2)C1C(=O)Nc1ccc(F)cc1F (stereo not drawn) [Compound 589] | 20 | 0 | 60 | 70 | 80 | 90 | 0 | 0 | 0 | 0 | 0 | 0 | 0 | 40 | 80 | 90 | 80 | 0 | 0 | 0 | Plant response rating, Foxtail, Giant [11, 23]: 80; Plant response rating, Galium [12, 23]: 0; Plant response rating, Kochia [13, 23]: 0; Plant response rating, Pigweed [14, 23]: 0; Plant response rating, Ragweed [15, 23]: 0; Plant response rating, Ragweed [15, 22]: 0; Plant response rating, Ryegrass, Italian [16, 23]: 20; Plant response rating, Ryegrass, Italian [16, 22]: 40; Plant response rating, Wheat [17, 23]: 0; Plant response rating, Wheat [17, 22]: 50; Plant response rating, Blackgrass [18, 23]: 20; Plant response rating, Blackgrass [18, 22]: 40; Plant response rating, Barnyardgrass [19, 23]: 60; Plant response rating, Barnyardgrass [19, 22]: 80; Plant response rating, Corn [20, 23]: 10; Plant response rating, Corn [20, 22]: 60
